Measurements published in ChEMBL document CHEMBL4673219, “Novel 5,6-disubstituted pyrrolo[2,3-d]pyrimidine derivatives as broad spectrum antiproliferative agents: Synthesis, cell based assays, kinase profile and molecular docking study” (Bioorg Med Chem, 2018).
“And” between values parts separate entries of the source, which are not always exact repeats. Equal values may be shown once.

What was measured:
Type in all cases: functional
Malme-3M = assay: Growth inhibition of human Malme-3M cells assessed as growth percentage at 1 uM incubated for 48 hrs by sulforhodamine B assay relative to control; conditions: read-out: Activity
DU-145 [1] = assay: Growth inhibition of human DU-145 cells assessed as growth percentage at 0.01 uM incubated for 48 hrs by sulforhodamine B assay relative to control; conditions: read-out: Activity
SR = assay: Growth inhibition of human SR cells assessed as growth percentage at 10 uM incubated for 48 hrs by sulforhodamine B assay relative to control; conditions: read-out: Activity
SF-268 = assay: Growth inhibition of human SF-268 cells assessed as growth percentage at 1 uM incubated for 48 hrs by sulforhodamine B assay relative to control; conditions: read-out: Activity
SNB-19 [2] = assay: Growth inhibition of human SNB-19 cells assessed as growth percentage at 1 uM incubated for 48 hrs by sulforhodamine B assay relative to control; conditions: read-out: Activity
HOP-62 = assay: Growth inhibition of human HOP-62 cells assessed as growth percentage at 1 uM incubated for 48 hrs by sulforhodamine B assay relative to control; conditions: read-out: Activity
Hs-578T [3] = assay: Growth inhibition of human Hs-578T cells assessed as growth percentage at 10 uM incubated for 48 hrs by sulforhodamine B assay relative to control; conditions: read-out: Activity
LOX IMVI = assay: Growth inhibition of human LOX IMVI cells assessed as growth percentage at 10 uM incubated for 48 hrs by sulforhodamine B assay relative to control; conditions: read-out: Activity
BT-549 [4] = assay: Growth inhibition of human BT-549 cells incubated for 48 hrs by sulforhodamine B assay
BT-549 [5] = assay: Growth inhibition of human BT-549 cells assessed as growth percentage at 10 uM incubated for 48 hrs by sulforhodamine B assay relative to control; conditions: read-out: Activity
NCI-H23 [6] = assay: Growth inhibition of human NCI-H23 cells assessed as growth percentage at 10 uM incubated for 48 hrs by sulforhodamine B assay relative to control; conditions: read-out: Activity
SF-539 = assay: Growth inhibition of human SF-539 cells assessed as growth percentage at 10 uM incubated for 48 hrs by sulforhodamine B assay relative to control; conditions: read-out: Activity
SK-MEL-5 = assay: Growth inhibition of human SK-MEL-5 cells assessed as growth percentage at 0.1 uM incubated for 48 hrs by sulforhodamine B assay relative to control; conditions: read-out: Activity
SF-295 = assay: Growth inhibition of human SF-295 cells incubated for 48 hrs by sulforhodamine B assay
SN12C [7] = assay: Growth inhibition of human SN12C cells assessed as growth percentage at 1 uM incubated for 48 hrs by sulforhodamine B assay relative to control; conditions: read-out: Activity
SK-OV-3 [8] = assay: Growth inhibition of human SK-OV-3 cells assessed as growth percentage at 0.1 uM incubated for 48 hrs by sulforhodamine B assay relative to control; conditions: read-out: Activity
Hs-578T [9] = assay: Growth inhibition of human Hs-578T cells assessed as growth percentage at 0.1 uM incubated for 48 hrs by sulforhodamine B assay relative to control; conditions: read-out: Activity
NCI-H322M = assay: Growth inhibition of human NCI-H322M cells assessed as growth percentage at 100 uM incubated for 48 hrs by sulforhodamine B assay relative to control; conditions: read-out: Activity
A498 = assay: Growth inhibition of human A498 cells assessed as growth percentage at 0.01 uM incubated for 48 hrs by sulforhodamine B assay relative to control; conditions: read-out: Activity
A549 [10] = assay: Growth inhibition of human A549/ATCC cells assessed as growth percentage at 1 uM incubated for 48 hrs by sulforhodamine B assay relative to control; conditions: read-out: Activity
HT-29 = assay: Growth inhibition of human HT-29 cells assessed as growth percentage at 10 uM incubated for 48 hrs by sulforhodamine B assay relative to control; conditions: read-out: Activity
UACC-257 = assay: Growth inhibition of human UACC-257 cells incubated for 48 hrs by sulforhodamine B assay; conditions: Homo sapiens, UACC-257, 48 h
A549 [11] = assay: Growth inhibition of human A549/ATCC cells assessed as growth percentage at 0.1 uM incubated for 48 hrs by sulforhodamine B assay relative to control; conditions: read-out: Activity
SK-OV-3 [12] = assay: Growth inhibition of human SK-OV-3 cells incubated for 48 hrs by sulforhodamine B assay
NCI-H522 = assay: Growth inhibition of human NCI-H522 cells incubated for 48 hrs by sulforhodamine B assay
OVCAR-5 = assay: Growth inhibition of human OVCAR-5 cells incubated for 48 hrs by sulforhodamine B assay
NCI-H460 = assay: Growth inhibition of human NCI-H460 cells assessed as growth percentage at 0.1 uM incubated for 48 hrs by sulforhodamine B assay relative to control; conditions: read-out: Activity
SN12C [13] = assay: Growth inhibition of human SN12C cells assessed as growth percentage at 0.01 uM incubated for 48 hrs by sulforhodamine B assay relative to control; conditions: read-out: Activity
OVCAR-3 = assay: Growth inhibition of human OVCAR-3 cells assessed as growth percentage at 0.1 uM incubated for 48 hrs by sulforhodamine B assay relative to control; conditions: read-out: Activity
DU-145 [14] = assay: Growth inhibition of human DU-145 cells assessed as growth percentage at 10 uM incubated for 48 hrs by sulforhodamine B assay relative to control; conditions: read-out: Activity
NCI-H23 [15] = assay: Growth inhibition of human NCI-H23 cells incubated for 48 hrs by sulforhodamine B assay
SNB-19 [16] = assay: Growth inhibition of human SNB-19 cells assessed as growth percentage at 0.01 uM incubated for 48 hrs by sulforhodamine B assay relative to control; conditions: read-out: Activity
KM12 = assay: Growth inhibition of human KM12 cells incubated for 48 hrs by sulforhodamine B assay; conditions: Homo sapiens
COLO 205 = assay: Growth inhibition of human COLO 205 cells assessed as growth percentage at 1 uM incubated for 48 hrs by sulforhodamine B assay relative to control; conditions: read-out: Activity
MDA-MB-231 = assay: Growth inhibition of human MDA-MB-231/ATCC cells assessed as growth percentage at 10 uM incubated for 48 hrs by sulforhodamine B assay relative to control; conditions: read-out: Activity
T47D = assay: Growth inhibition of human T47D cells assessed as growth percentage at 0.01 uM incubated for 48 hrs by sulforhodamine B assay relative to control; conditions: read-out: Activity
HCT-15 = assay: Growth inhibition of human HCT-15 cells incubated for 48 hrs by sulforhodamine B assay; conditions: Homo sapiens
MDA-MB-435 = assay: Growth inhibition of human MDA-MB-435 cells assessed as growth percentage at 0.01 uM incubated for 48 hrs by sulforhodamine B assay relative to control; conditions: read-out: Activity
TK-10 = assay: Growth inhibition of human TK-10 cells assessed as growth percentage at 1 uM incubated for 48 hrs by sulforhodamine B assay relative to control; conditions: read-out: Activity

Nc1nc2[nH]c(CN3CCN(c4cc(Cl)cc(Cl)c4)CC3)c(CN3CCN(c4cc(Cl)cc(Cl)c4)CC3)c2c(=O)[nH]1
growth at 1 µM (Malme-3M): 101%
growth at 0.01 µM (DU-145 [1]): 110%
growth at 10 µM (SR): 12.1%
growth at 1 µM (SF-268): 94%
growth at 1 µM (SNB-19 [2]): 89%
growth at 1 µM (HOP-62): 85%
growth at 10 µM (Hs-578T [3]): 98.8%
growth at 10 µM (LOX IMVI): 26.3%
GI50 (BT-549 [4]): 1.72 µM
TGI (BT-549 [4]): 3.76 µM
growth at 10 µM (BT-549 [5]): 87%
growth at 10 µM (NCI-H23 [6]): 85.7%
growth at 10 µM (SF-539): 84.5%
growth at 0.1 µM (SK-MEL-5): 98%
GI50 (SF-295): 1.82 µM
TGI (SF-295): 3.9 µM
growth at 1 µM (SN12C [7]): 95%
growth at 0.1 µM (SK-OV-3 [8]): 103%
growth at 0.1 µM (Hs-578T [9]): 88%
growth at 100 µM (NCI-H322M): -54%
growth at 0.01 µM (A498): 90%
growth at 1 µM (A549 [10]): 92%
growth at 10 µM (HT-29): 33.4%
GI50 (UACC-257): 2.06 µM
TGI (UACC-257): 4.76 µM
growth at 0.1 µM (A549 [11]): 94%
TGI (SK-OV-3 [12]; 48 h): 17.5 µM and 1.75 µM
GI50 (SK-OV-3 [12]; Homo sapiens, SK-OV-3): 4.62 µM
GI50 (NCI-H522): 1.74 µM
TGI (NCI-H522): 3.44 µM
GI50 (OVCAR-5): 2.64 µM
TGI (OVCAR-5): 9.27 µM
growth at 0.1 µM (NCI-H460): 104%
growth at 0.01 µM (SN12C [13]): 100%
growth at 0.1 µM (OVCAR-3): 106%
growth at 10 µM (DU-145 [14]): 81.3%
GI50 (NCI-H23 [15]): 2.03 µM
TGI (NCI-H23 [15]): 3.96 µM
growth at 0.01 µM (SNB-19 [16]): 96%
TGI (KM12; KM12): 3.42 µM
GI50 (KM12; KM12, 48 h): 1.83 µM
CC50 (KM12; KM12, read-out: LC50 (the source's name)): 6.38 µM
growth at 1 µM (COLO 205): 85%
growth at 10 µM (MDA-MB-231): 71.9%
growth at 0.01 µM (T47D): 91%
TGI (HCT-15; HCT-15): 4.05 µM
GI50 (HCT-15; HCT-15, 48 h): 1.93 µM
growth at 0.01 µM (MDA-MB-435): 89%
growth at 1 µM (TK-10): 100%
